Results as given in patent US8685977B2, “Chemical compounds” (Pfizer Limited, priority 2010, dated 2014).

Biological target: T1, Nav1.7 (or SCN9A) channel (Homo sapiens, UniProt Q15858)
T1 construct: expressed in transfected cells
Test: Nav1.7 PatchXpress 7000 automated electrophysiology assay (HEK cells stably expressing hSCN9A)
Type: cell-based
Conditions: voltage-clamped at V1/2 of inactivation, read-out: Nav1.7 EIC50
Method: The ability of the compounds of formula (I) to block the Nav1.7 (or SCN9A) channel was measured using the assays described below.
Human Embryonic Kidney (HEK) cells were transfected with an hSCN9A construct using lipofectamine reagent (Invitrogen), using standard techniques. Cells stably expressing the hSCN9A constructs were identified by their resistance to G-418 (400 μg/ml). Clones were screened for expression using the whole-cell voltage-clamp technique.
HEK cells stably transfected with hSCN9A were maintained in DMEM medium supplemented with 10% heat-inactivated fetal bovine serum and 400 μg/ml G-418 in an incubator at 37° C. with a humidified atmosphere of 10% CO2. For HTS, cells were harvested from flasks by trypsinization and replated in an appropriate multi-well plate (typically 96 or 384 wells/plate) such that confluence would be achieved within 24 hours of plating. For electrophysiological studies, cells were removed from the culture flask by brief trypsinization and re-plated at low density onto glass cover slips. Cells were typically used for electrophysiological experiments within 24 to 72 hours after plating.
Cover slips containing HEK cells expressing hSCN9A were placed in a bath on the stage of an inverted microscope and perfused (approximately 1 ml/minutes) with extracellular solution of the following composition: 138 mM NaCl, 2 mM CaCl2, 5.4 mM KCl, 1 mM MgCl2, 10 mM glucose, and 10 mM HEPES, pH 7.4, with NaOH. […] The osmolarity of the extracellular and intracellular solutions was 300 mOsm/kg and 295 mOsm/kg, respectively. All recordings were made at room temperature (22-24° C.) using AXOPATCH 200B amplifiers and PCLAMP software (Axon Instruments, Burlingame, Calif.).
HEK cells stably transfected with hSCN9A were viewed under Hoffman contrast optics and placed in front of an array of flow pipes emitting either control or compound-containing extracellular solutions. All compounds were dissolved in dimethyl sulfoxide to make 10 mM stock solutions, which were then diluted into extracellular solution to attain the final concentrations desired. […] The voltage-dependence of inactivation was determined by applying a series of depolarizing prepulses (8 sec long in 10 mV increments) from a negative holding potential. The voltage was then immediately stepped to 0 mV to assess the magnitude of the sodium current. Currents elicited at 0 mV were plotted as a function of prepulse potential to allow estimation of the voltage at which 50% of the channels were inactivated (midpoint of inactivation or V1/2). Compounds were tested for their ability to inhibit hSCN9A sodium channels by activating the channel with a 20 msec voltage step to 0 mV following an 8 second conditioning prepulse to the empirically determined V1/2. Compound effect (% inhibition) was determined by difference in current amplitude before and after application of test compounds. For ease of comparison, “estimated IC-50” (EIC50) values were calculated from single point electrophysiology data by the following equation, (tested concentration, uM)×(100-% inhibition/% inhibition). Inhibition values <20% and >80% were excluded from the calculation.
Electrophysiological assays were conducted with PatchXpress 7000 hardware and associated software (Molecular Devices Corp). All assay buffers and solutions were identical to those used in conventional whole-cell voltage clamp experiments described above. hSCN9A cells were grown as above to 50%-80% confluency and harvested by trypsinization. Trypsinized cells were washed and resuspended in extracellular buffer at a concentration of 1×10^6 cells/ml. The onboard liquid handling facility of the PatchXpress was used for dispensing cells and application of test compounds. Determination of the voltage midpoint of inactivation was as described for conventional whole-cell recordings. Cells were then voltage-clamped to the empirically determined V1/2 and current was activated by a 20 msec voltage step to 0 mV. […]

T1 sequence (Q15858 whole entry): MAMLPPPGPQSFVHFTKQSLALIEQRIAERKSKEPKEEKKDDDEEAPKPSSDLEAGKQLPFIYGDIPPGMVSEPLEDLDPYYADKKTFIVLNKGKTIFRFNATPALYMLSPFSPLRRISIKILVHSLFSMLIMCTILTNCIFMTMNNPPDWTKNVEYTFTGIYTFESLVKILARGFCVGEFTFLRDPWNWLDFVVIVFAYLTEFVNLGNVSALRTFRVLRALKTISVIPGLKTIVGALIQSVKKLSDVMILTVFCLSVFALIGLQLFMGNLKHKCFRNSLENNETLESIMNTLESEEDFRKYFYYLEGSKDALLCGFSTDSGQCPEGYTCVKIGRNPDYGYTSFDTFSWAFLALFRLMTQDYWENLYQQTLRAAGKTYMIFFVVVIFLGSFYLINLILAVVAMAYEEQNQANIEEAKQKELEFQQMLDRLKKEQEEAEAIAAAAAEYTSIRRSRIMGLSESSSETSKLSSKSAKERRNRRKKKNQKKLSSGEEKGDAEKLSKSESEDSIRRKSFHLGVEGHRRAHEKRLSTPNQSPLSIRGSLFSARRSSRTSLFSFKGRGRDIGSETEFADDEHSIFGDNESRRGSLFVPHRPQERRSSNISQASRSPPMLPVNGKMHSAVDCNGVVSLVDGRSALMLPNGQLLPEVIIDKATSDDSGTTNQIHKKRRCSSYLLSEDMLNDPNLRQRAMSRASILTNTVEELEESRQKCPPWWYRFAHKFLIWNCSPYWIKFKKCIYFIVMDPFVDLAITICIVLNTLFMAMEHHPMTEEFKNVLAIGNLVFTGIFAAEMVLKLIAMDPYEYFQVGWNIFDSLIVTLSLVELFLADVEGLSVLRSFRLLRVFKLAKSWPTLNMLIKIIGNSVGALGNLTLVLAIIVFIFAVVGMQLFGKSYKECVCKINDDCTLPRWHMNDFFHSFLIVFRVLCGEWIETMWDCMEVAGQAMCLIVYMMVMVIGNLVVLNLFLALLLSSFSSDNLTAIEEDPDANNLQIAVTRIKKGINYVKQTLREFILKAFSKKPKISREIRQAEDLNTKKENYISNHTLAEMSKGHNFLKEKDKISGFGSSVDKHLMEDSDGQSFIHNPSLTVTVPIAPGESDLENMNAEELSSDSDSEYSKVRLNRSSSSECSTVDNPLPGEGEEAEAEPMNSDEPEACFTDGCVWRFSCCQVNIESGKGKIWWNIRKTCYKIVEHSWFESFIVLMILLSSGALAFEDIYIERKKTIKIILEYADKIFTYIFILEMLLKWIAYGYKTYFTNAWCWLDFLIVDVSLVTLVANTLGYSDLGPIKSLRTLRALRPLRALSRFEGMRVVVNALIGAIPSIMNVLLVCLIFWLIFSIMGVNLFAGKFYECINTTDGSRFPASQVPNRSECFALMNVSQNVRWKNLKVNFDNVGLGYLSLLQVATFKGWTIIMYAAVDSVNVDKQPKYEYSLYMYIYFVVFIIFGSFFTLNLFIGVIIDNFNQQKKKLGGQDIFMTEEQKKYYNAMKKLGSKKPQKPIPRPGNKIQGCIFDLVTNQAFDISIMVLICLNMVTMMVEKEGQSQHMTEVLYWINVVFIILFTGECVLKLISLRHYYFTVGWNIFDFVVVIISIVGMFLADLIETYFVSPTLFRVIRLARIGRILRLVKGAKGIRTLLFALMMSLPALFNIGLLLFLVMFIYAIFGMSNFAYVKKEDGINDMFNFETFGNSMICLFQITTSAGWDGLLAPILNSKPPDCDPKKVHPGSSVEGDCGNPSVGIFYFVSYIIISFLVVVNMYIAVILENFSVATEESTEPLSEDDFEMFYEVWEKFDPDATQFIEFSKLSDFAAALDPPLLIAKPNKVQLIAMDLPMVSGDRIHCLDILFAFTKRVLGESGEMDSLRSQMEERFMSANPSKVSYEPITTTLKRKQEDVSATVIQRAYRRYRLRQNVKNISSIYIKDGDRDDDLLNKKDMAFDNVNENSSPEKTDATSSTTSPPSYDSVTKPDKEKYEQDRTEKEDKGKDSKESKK

Going from `CS(=O)(=O)NC(=O)c1ccc(Oc2ccc(Cl)c(C(F)(F)F)c2)c(Cl)c1` [Example 44, 3-chloro-4-[4-chloro-3-(trifluoromethyl)phenoxy]-N-(methylsulfonyl)benzamide] to `CS(=O)(=O)NC(=O)c1ccc(Oc2ccc(Cl)c(C(F)(F)F)c2)c(F)c1` [Example 42, 4-[4-chloro-3-(trifluoromethyl)phenoxy]-3-fluoro-N-(methylsulfonyl)benzamide], the IC50 falls from 2 µM to 0.59 µM (3.4-fold). The second is the more potent here.

Compared with `CS(=O)(=O)NC(=O)c1ccc(Cc2cccc(OC(F)(F)F)c2)cc1` [Example 316, N-(Methylsulfonyl-1)-4-[3-(trifluoromethoxy)benzyl]benzamide], `Cc1cccc(Oc2ccc(C(=O)NS(C)(=O)=O)cc2)c1C` [Example 184, 4-(2,3-dimethylphenoxy)-N-(methylsulfonyl)benzamide] is 15-fold higher in IC50: 1.6 µM for the first, 24 µM for the second. The first is the more potent here.

`Cc1cc(Cl)ccc1Oc1ccc(C(=O)NS(C)(=O)=O)cc1` [Example 206, 4-(4-chloro-2-methylphenoxy)-N-(methylsulfonyl)benzamide] and `Cn1nccc1-c1cc(Cl)ccc1Oc1ccc(C(=O)NS(C)(=O)=O)cc1` [Example 83, 4-(4-chloro-2-(1-methyl-1H-pyrazol-5-yl)phenoxy)-N-(methylsulfonyl)benzamide] cannot be ordered by IC50: 18 µM for the first, over 3 µM for the second.

`CCc1cc(F)ccc1Oc1ccc(C(=O)NS(C)(=O)=O)cc1C#N` [Example 22, 3-cyano-4-(2-ethyl-4-fluorophenoxy)-N-(methylsulfonyl)benzamide] and `CCOc1ccc(Oc2ccc(C(=O)NS(C)(=O)=O)cc2C#N)cc1` [Example 265, 3-cyano-4-(4-ethoxyphenoxy)-N-(methylsulfonyl)benzamide] are within 1.5-fold of each other in IC50: 5.2 µM for the first, 4.8 µM for the second.

`CS(=O)(=O)NC(=O)c1ccc(Oc2cccc(Cl)c2)c(F)c1` [Example 223, 4-(3-chlorophenoxy)-3-fluoro-N-(methylsulfonyl)benzamide] and `Cc1cc(Oc2ccc(C(=O)NS(C)(=O)=O)cc2F)ccc1F` [Example 218, 3-fluoro-4-(4-fluoro-3-methylphenoxy)-N-(methylsulfonyl)benzamide] are within 1.5-fold of each other in IC50: 2.4 µM for the first, 2.8 µM for the second.

First: CS(=O)(=O)NC(=O)c1cc(Cl)c(Oc2ccccc2C#N)cc1F [Example 293, 5-chloro-4-(2-cyanophenoxy)-2-fluoro-N-(methylsulfonyl)benzamide]
Second: COc1cccc(Oc2cc(F)c(C(=O)NS(C)(=O)=O)cc2Cl)c1 [Example 289, 5-chloro-2-fluoro-4-(3-methoxyphenoxy)-N-(methylsulfonyl)benzamide]
The IC50 of the first is higher: over 3 µM for the first, 1.2 µM for the second. The second is the more potent here.

Going from `CCS(=O)(=O)NC(=O)c1ccc(Oc2ccc(C)cc2)cc1` [Example 308, N-(ethylsulfonyl)-4-(4-methylphenoxy)benzamide] to `CCS(=O)(=O)NC(=O)c1ccc(Oc2ccccc2)cc1` [Example 307, N-(ethylsulfonyl)-4-phenoxybenzamide], the IC50 falls from over 10 µM to 9.7 µM. The second is the more potent here.

Compared with `CS(=O)(=O)NC(=O)c1cc(F)c(Oc2cc(F)cc(F)c2F)cc1F` [Example 97, 2,5-difluoro-N-(methylsulfonyl)-4-(2,3,5-trifluorophenoxy)benzamide], `Cc1ccc(F)c(Oc2cc(F)c(C(=O)NS(C)(=O)=O)cc2F)c1` [Example 122, 2,5-difluoro-4-(2-fluoro-5-methylphenoxy)-N-(methylsulfonyl)benzamide] is 1.6-fold lower in IC50: 7 µM for the first, 4.4 µM for the second.

Going from `COc1c(C(=O)NS(C)(=O)=O)ccc(Oc2ccc(Cl)c(C(F)(F)F)c2)c1F` [Example 78, 4-(4-chloro-3-(trifluoromethyl)phenoxy)-3-fluoro-2-methoxy-N-(methylsulfonyl)benzamide] to `COc1c(C(=O)NS(C)(=O)=O)ccc(Oc2ccc(Cl)c(C)c2)c1F` [Example 230, 4-(4-chloro-3-methylphenoxy)-3-fluoro-2-methoxy-N-(methylsulfonyl)benzamide], the IC50 falls from 4.2 µM to 0.86 µM (4.9-fold).

`COc1cc(Cl)ccc1Oc1ccc(C(=O)NS(C)(=O)=O)c(F)c1` [Example 64, 4-(4-chloro-2-methoxyphenoxy)-2-fluoro-N-(methylsulfonyl)benzamide] and `COc1cc(C(=O)NS(C)(=O)=O)ccc1Oc1ccc(Cl)c(C(F)(F)F)c1` [Example 59, 4-[4-chloro-3-(trifluoromethyl)phenoxy]-3-methoxy-N-(methylsulfonyl)benzamide] cannot be ordered by IC50: over 3 µM for the first, 4 µM for the second.

`CCS(=O)(=O)NC(=O)c1ccc(Oc2cccc(F)c2)cc1` [Example 306, N-(ethylsulfonyl)-4-(3-fluorophenoxy)benzamide] and `COc1ccc(F)cc1Oc1ccc(C(=O)NS(C)(=O)=O)cc1` [Example 188, 4-(5-fluoro-2-methoxyphenoxy)-N-(methylsulfonyl)benzamide] cannot be ordered by IC50: 25 µM for the first, over 10 µM for the second.

`CS(=O)(=O)NC(=O)c1cc(F)c(Oc2ccccc2C(F)(F)F)cc1F` [Example 113, 2,5-difluoro-N-(methylsulfonyl)-4-[2-(trifluoromethyl)phenoxy]benzamide] and `CC(C)c1ccccc1Oc1cc(F)c(C(=O)NS(C)(=O)=O)cc1F` [Example 93, 2,5-difluoro-4-(2-isopropylphenoxy)-N-(methylsulfonyl)benzamide] cannot be ordered by IC50: over 3 µM for the first, over 1 µM for the second.

First: Cc1ccc(Oc2cc(F)c(C(=O)NS(C)(=O)=O)cc2F)cc1Cl [Example 151, 4-(3-chloro-4-methylphenoxy)-2,5-difluoro-N-(methylsulfonyl)benzamide]
Second: Cc1cc(Cl)cc(Oc2cc(F)c(C(=O)NS(C)(=O)=O)cc2F)c1 [Example 155, 4-(3-chloro-5-methylphenoxy)-2,5-difluoro-N-(methylsulfonyl)benzamide]
The IC50 of the first is 10-fold lower: 0.52 µM for the first, 5.4 µM for the second.

`Cc1cc(Oc2cc(F)c(C(=O)NS(C)(=O)=O)cc2F)cc(C)c1C#N` [Example 112, 4-(4-cyano-3,5-dimethylphenoxy)-2,5-difluoro-N-(methylsulfonyl)benzamide] and `Cc1cccc(C)c1Oc1cc(F)c(C(=O)NS(C)(=O)=O)cc1F` [Example 104, 4-(2,6-dimethylphenoxy)-2,5-difluoro-N-(methylsulfonyl)benzamide] cannot be ordered by IC50: over 3 µM for the first, over 3 µM for the second.

First: CCOc1ccc(Oc2cc(F)c(C(=O)NS(C)(=O)=O)cc2Cl)cc1 [Example 294, 5-chloro-4-(4-ethoxyphenoxy)-2-fluoro-N-(methylsulfonyl)benzamide]
Second: COc1c(C(=O)NS(C)(=O)=O)ccc(Oc2ccc(Cl)c(Cl)c2)c1F [Example 234, 4-(3,4-dichlorophenoxy)-3-fluoro-2-methoxy-N-(methylsulfonyl)benzamide]
The IC50 of the first is 5.3-fold lower: 0.16 µM for the first, 0.85 µM for the second.

Compared with `CCC(C)S(=O)(=O)NC(=O)c1cc(F)c(Oc2ccc(Cl)c(C(F)(F)F)c2)cc1F` (stereo not drawn) [Example 58, N-(sec-butylsulfonyl)-4-[4-chloro-3-(trifluoromethyl)phenoxy]-2,5-difluorobenzamide], `CS(=O)(=O)NC(=O)c1c(F)cc(Oc2ccc(Cl)c(C(F)(F)F)c2)cc1F` [Example 31, 4-(4-chloro-3-(trifluoromethyl)phenoxy)-2,6-difluoro-N-(methylsulfonyl)benzamide] is 13-fold higher in IC50: 0.43 µM for the first, 5.7 µM for the second. The first is the more potent here.

Compared with `CS(=O)(=O)NC(=O)c1ccc(Oc2ccc3ccccc3c2)c(C#N)c1` [Example 269, 3-cyano-N-(methylsulfonyl)-4-(2-naphthyloxy)benzamide], `CS(=O)(=O)NC(=O)c1ccc(Oc2ccc(C#N)c(C#N)c2)cc1` [Example 25, 4-(3,4-dicyanophenoxy)-N-(methylsulfonyl)benzamide] is higher in IC50: 1.7 µM for the first, over 10 µM for the second.

Going from `COc1cc(Cl)ccc1Cc1cc(F)c(C(=O)NS(C)(=O)=O)cc1F` [Example 319, 4-(4-Chloro-2-methoxybenzyl)-2,5-difluoro-N-(methylsulfonyl)benzamide] to `CC(C)S(=O)(=O)NC(=O)c1ccc(Oc2ccc(Cl)c(C(F)(F)F)c2)cc1` [Example 76, 4-(4-chloro-3-(trifluoromethyl)phenoxy)-N-(isopropylsulfonyl)benzamide], the IC50 falls from 2.5 µM to 0.85 µM (2.9-fold). The second is the more potent here.
